Patent publication US11014884B2 (Global Blood Therapeutics, Inc., priority 2018, dated 2021)

How the values were obtained:
hemoglobin = target: T1, hemoglobin (Homo sapiens, UniProt P69905); experiment: Whole blood assay: oxygen equilibrium curves (Hemox Analyzer), change in p50; assay type: cell-based; conditions: whole blood 20% Hct (1 mM Hb), compound 1 mM, equimolar to hemoglobin, 1 h at 37° C.
T1 construct: from tissue; host or cells: whole blood (red blood cells)
Procedure: Oxygen equilibrium curves (OECs) were collected using a TCS Hemox Analyzer (TCS Scientific Company, New Hope, Pa., USA) to measure changes in the binding affinity of 02 to Hb. Whole blood was incubated for 1 h at 37° C. with the indicated compounds in an equimolar ratio of hemoglobin to compound and diluted into TES (2-[[1,3-dihydroxy-2-(hydroxymethyl)propan-2-yl]amino]ethanesulfonic acid)/saline buffer prior to measurements. For example, for whole blood at 20% hematocrit [Hct], which corresponds to 1 mM Hb, a compound concentration of 1 mM was used (for example, for compounds 1-53), and the incubated sample diluted 50- to 100-fold. The concentration for compound 54 was 1.7 mM and in equimolar ratio to hemoglobin. The diluted samples were then oxygenated with compressed air within the Hemox Analyzer, and the OECs were collected during deoxygenation as previously described (Guarnone et al., Haematologica, 1995, 80, 426-430). p50 (partial pressure of 02 at which Hb is 50% saturated with 02) values were obtained using a non-linear regression analysis. Percentage change in p50 [Δp50(%)] was calculated as follows: Δp50(%)=[(p50 of control)−p50 with compound)/p50 control]×100.

Purified hemoglobin = Purified hemoglobin (Homo sapiens, UniProt P69905); experiment: Hemoglobin assay: oxygen equilibrium curves with purified hemoglobin, change in p50; assay type: biochemical; conditions: purified hemoglobin 25 μM, 1 h at 37° C.
Procedure: Hemoglobin assay: Oxygen equilibrium curves (OECs) were collected as described above. Purified hemoglobin (25 μM) was incubated for 1 h at 37° C. with the indicated compounds (30 μM for compounds 6, 7, 8, and 11; 25 μM for compounds 55 to 67 (Enantiomer 1 and Enantiomer 2)) in 5 ml of TES (2-[[1,3-dihydroxy-2-(hydroxymethyl)propan-2-yl]amino]ethanesulfonic acid)/saline buffer prior to measurements. The samples were then oxygenated with compressed air within the Hemox Analyzer and the OECs were collected during deoxygenation as previously described. p50 values were obtained using a non-linear regression analysis, and Δp50(%) was calculated as described above.

[1] = Pharmacokinetics in rats following 10 mg/kg oral administration; assay type: in vivo; conditions: Sprague-Dawley, rat, PO 10 mg/kg
Procedure: The pharmacokinetic (PK) profile of Compound 2 was characterized in Sprague-Dawley rats following oral administration of 10 mg/kg. Blood and plasma samples were serially collected from each animal up to 240 h post-dose and analyzed for their concentrations using LC/MS. The analytical range was 100 to 100,000 ng/ml for both plasma and blood samples. Blood and plasma concentrations of Compound 2 were analyzed by non-compartmental analysis using Phoenix WinNonlin software (version 6-4; Pharsight Inc., Cary, N.C., USA) to obtain pharmacokinetic parameters, including half-life (T½) and area under the curve (AUC). AUClast refers to the area under the curve calculated from t=0 to the last detectable time-point. Blood to plasma concentration ratio was calculated from a ratio of AUClast in blood divided by AUClast in plasma.
Blood pharmacokinetic parameters in rat were determined in individual animals and reported as mean.

Human CO-HbS = target: T2, Human CO-HbS (Homo sapiens, UniProt P69905); experiment: Crystallography of CO-liganded HbS with compound; conditions: CO-HbS 0.8 mM, compound 1 mM
T2 construct: Purified HbS was prepared from blood using a combination of gel filtration and anion exchange chromatography; from tissue; host or cells: blood
Procedure: Purified HbS was prepared from blood using a combination of gel filtration and anion exchange chromatography. Following preparation, the purified HbS solution was concentrated to 1 mM in a volume of 1 mL using a Vivaspin 20 concentrator (GE healthcare) via centrifugation at room temperature in an Eppendorf 5810 R centrifuge. The concentrated HbS solution was then buffer exchanged into potassium phosphate buffer by mixing 1 mL of concentrated HbS solution with 20 mL of 1.8 M potassium phosphate buffer, pH 7.4 and re-concentrating back to 1 mL using a Vivaspin 20. This process was repeated twice and aliquots of the resulting HbS solution were flash frozen using liquid nitrogen and stored at −80° C. To prepare HbS-CO, purified HbS was first saturated with CO for five hours before it was buffer exchanged into 20 mM Hepes buffer, pH 7.4, and concentrated to 3 mM.
Human CO-HbS was crystallized using sitting drop vapor diffusion method. Freshly prepared CO-HbS at 0.8 mM and buffered with 20 mM HEPES pH 7.4 was mixed with compounds (specifically, Compound 1 and Compound 2) at a final concentration of 1 mM. […] The appearance of hemoglobin crystals was monitored visually and microscopically every 48-72 hours after beginning of the experiments. […]

Sequence of Purified hemoglobin (P69905 2-142 limits assumed): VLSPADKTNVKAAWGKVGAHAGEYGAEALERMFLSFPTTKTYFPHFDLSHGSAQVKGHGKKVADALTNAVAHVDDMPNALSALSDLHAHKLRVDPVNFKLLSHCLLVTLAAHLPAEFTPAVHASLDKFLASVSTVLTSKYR
Sequence of Purified hemoglobin (P68871 2-147 partner limits assumed): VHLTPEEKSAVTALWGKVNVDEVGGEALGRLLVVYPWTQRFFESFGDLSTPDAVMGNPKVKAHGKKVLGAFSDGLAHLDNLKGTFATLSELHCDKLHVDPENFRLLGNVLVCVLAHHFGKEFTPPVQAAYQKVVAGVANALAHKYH
T1 sequence (P69905 2-142 limits assumed): as the sequence (P69905 2-142 limits assumed) above
T1 sequence (P68871 2-147 partner limits assumed): as the sequence (P68871 2-147 partner limits assumed) above
T2 sequence (P69905 2-142 limits assumed): as the sequence (P69905 2-142 limits assumed) above

SMILES	Delta-p50 (%) (hemoglobin)	Delta-p50 (%) (Purified hemoglobin; compound 25 μM)	further results
O=Cc1cc(-c2ncccc2COc2cccc(O)c2C=O)co1 [Compound 11, 4-{3-[(2-formyl-3-hydroxyphenoxy)methyl]pyridin-2-yl}furan-2-carbaldehyde]	17.2		Delta-p50 (%) (Purified hemoglobin; compound 30 μM): 14.12%
COc1ncc(C=O)cc1-c1ncccc1COc1cccc(O)c1C=O [Compound 7, 3-[(2-formyl-3-hydroxyphenoxy)methyl]-2′-methoxy-[2,3′-bipyridine]-5′-carbaldehyde]	32.5		Delta-p50 (%) (Purified hemoglobin; compound 30 μM): 58.29%
O=Cc1cccc(-c2ncccc2COc2cccc(O)c2C=O)c1 [Compound 8, 3-{3-[(2-formyl-3-hydroxyphenoxy)methyl]pyridin-2-yl}benzaldehyde]	44.8		Delta-p50 (%) (Purified hemoglobin; compound 30 μM): 57.3%
O=Cc1ccccc1C(=O)N1CCCC[C@H]1COc1cccc(O)c1C=O [Compound 2, 2-{[(2S)-1-(2-formylbenzoyl)piperidin-2-yl]methoxy}-6-hydroxybenzaldehyde]	78.3		blood plasma ratio ([1]; blood and plasma, AUClast in blood divided by AUClast in plasma): 937; AUC(0-t) ([1]; whole blood, blood, 0.5% MC, mean of N=3): 239 µg·h/mL; half-life ([1]; whole blood, blood, 0.5% MC, mean of N=3, read-out: T½ (converted)): 187 h; binding sites on hemoglobin (crystal structure) (Human CO-HbS): two distinct areas of hemoglobin
CC1(C)C[C@@H](COc2cccc(O)c2C=O)N(C(=O)c2cccc(O)c2C=O)C1 [Compound 65, 2-[[(2S)-1-(2-formyl-3-hydroxybenzoyl)-4,4-dimethylpyrrolidin-2-yl]methoxy]-6-hydroxybenzaldehyde]		69	
CC1(C)CN(C(=O)c2cccc(O)c2C=O)C(COc2cccc(O)c2C=O)CO1 (stereo in doubt) [Compound 64]		67	
O=Cc1ccccc1OC[C@@H]1COCCN1C(=O)c1cccc(O)c1C=O [Compound 56, (S)-2-(3-((2-formylphenoxy)methyl)morpholine-4-carbonyl)-6-hydroxybenzaldehyde]		70	
COc1ccc(C(=O)N2CCCC[C@H]2COc2cccc(O)c2C=O)c(C=O)c1O [Compound 57, (S)-6-(2-((2-formyl-3-hydroxyphenoxy)methyl)piperidine-1-carbonyl)-2-hydroxy-3-methoxybenzaldehyde]		71	
O=Cc1c(O)cccc1OCC1CSCCN1C(=O)c1cccc(O)c1C=O (single isomer, unassigned) [67 (Enantiomer 1), 2-((4-(2-formyl-3-hydroxybenozyl)thiomorpholin-3-yl)methoxy)-6-hydroxybenzaldehyde]		67.2	
O=Cc1ccccc1OC[C@@H]1CCCCN1C(=O)c1cccc(O)c1C=O [Compound 55, (S)-2-(2-((2-formylphenoxy)methyl)piperidine-1-carbonyl)-6-hydroxybenzaldehyde]		71	
CC1CN(C(=O)c2cccc(O)c2C=O)C(COc2cccc(O)c2C=O)CO1 (stereo not shown) [Compound 60, 2-((4-(2-formyl-3-hydroxybenzoyl)-6-methylmorpholin-3-yl)methoxy)-6-hydroxybenzaldehyde]		67	
O=Cc1c(O)cccc1OC[C@H]1CN(C(=O)c2cccc(O)c2C=O)CCO1 [Compound 59, 2-[[(2R)-4-(2-formyl-3-hydroxybenzoyl)morpholin-2-yl]methoxy]-6-hydroxybenzaldehyde]		71	
COc1ccc(C=O)cc1-c1ncccc1COc1cccc(O)c1C=O [Compound 6, 3-{3-[(2-formyl-3-hydroxyphenoxy)methyl]pyridin-2-yl}-4-methoxybenzaldehyde]	16.7		Delta-p50 (%) (Purified hemoglobin; compound 30 μM): 60.66%
O=Cc1c(O)cccc1OC[C@@H]1CCCN(C(=O)Oc2cccc(O)c2C=O)C1 [Compound 63, 2-formyl-3-hydroxyphenyl (3R)-3-(2-formyl-3-hydroxyphenoxymethyl)piperidine-1-carboxylate]		70	
O=Cc1c(O)cccc1OC[C@@H]1CCCCN1C(=O)c1cccc(O)c1C=O [Compound 1, 2-[(2S)-2-[(2-formyl-3-hydroxyphenoxy)methyl]piperidine-1-carbonyl]-6-hydroxybenzaldehyde]	75.8		binding sites on hemoglobin (crystal structure) (Human CO-HbS): two distinct areas of hemoglobin
O=Cc1c(O)cccc1CN1C(=O)CCCC1COc1cccc(O)c1C=O (racemic) [Compound 66, 2-((1-(2-formyl-3-hydroxybenzyl)-6-oxopiperidin-2-yl)methoxy)-6-hydroxybenzaldehyde]		71	
